From PubChem BioAssay (NCI)
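96-well plates; 48 h exposure; 5 concentrations. Endpoints by linear interpolation between flanking doses. Not reached: highest tested concentration assigned. Abbreviation: GI50, concentration required for 50% inhibition of growth. TGI: concentration producing complete growth inhibition.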

Assays:
Assay in all cases: NCI anticancer screen, dose series, 48 h
[1] = tested on: 786-0 renal
[2] = tested on: A498 renal
[3] = tested on: A549 NSCLC
[4] = tested on: ACHN renal
[5] = tested on: BT-549 breast
[6] = tested on: CAKI-1 renal
[7] = tested on: CCRF-CEM leukemia
[8] = tested on: COLO 205 colon
[9] = tested on: DU-145 prostate
[10] = tested on: EKVX NSCLC
[11] = tested on: HCC-2998 colon
[12] = tested on: HCT-116 colon
[13] = tested on: HCT-15 colon
[14] = tested on: HL-60(TB) leukemia
[15] = tested on: HOP-62 NSCLC
[16] = tested on: HOP-92 NSCLC
[17] = tested on: HS 578T breast
[18] = tested on: HT29 colon
[19] = tested on: IGROV1 ovarian
[20] = tested on: K-562 leukemia
[21] = tested on: KM12 colon
[22] = tested on: LOX IMVI melanoma
[23] = tested on: M14 melanoma
[24] = tested on: MALME-3M melanoma
[25] = tested on: MCF7 breast
[26] = tested on: MDA-MB-231 breast
[27] = tested on: MDA-MB-435
[28] = tested on: MOLT-4 leukemia
[29] = tested on: NCI-H226 lung

`c1cc2[nH]ncc2cc1-c1nc2ccc3[nH]ncc3c2c2c1CCCC2` was tested, and the GI50 [1] was 2100 nM, the TGI [1] was 11.3 µM and the GI50 [2] was 273 nM. The TGI [2] was 1820 nM, the GI50 [3] was 1780 nM and the TGI [3] was greater than 31.4 µM. The GI50 [4] was 583 nM, the TGI [4] was 10.7 µM and the GI50 [5] was 1000 nM. The TGI [5] was 3.78 µM, the GI50 [6] was 434 nM and the TGI [6] was 5.62 µM. It also gave a GI50 [7] of 836 nM, a TGI [7] greater than 25.3 µM and a GI50 [8] of 1360 nM. The TGI [8] was 8.36 µM, the GI50 [9] was 2270 nM and the TGI [9] was 11.2 µM. It also gave a GI50 [10] of 1910 nM, a TGI [10] of 9.15 µM and a GI50 [11] of 1980 nM. For the same compound, the TGI [11] was 9.79 µM, the GI50 [12] was 455 nM and the TGI [12] was 10.6 µM. The GI50 [13] was 540 nM, the TGI [13] was 11.2 µM and the GI50 [14] was 512 nM. It also gave a TGI [14] of 3.09 µM, a GI50 [15] of 1390 nM and a TGI [15] of 9.11 µM. For the same compound, the GI50 [16] was 966 nM, the TGI [16] was 4.58 µM and the GI50 [17] was 1710 nM. It also gave a TGI [17] of 13.7 µM, a GI50 [18] of 1590 nM and a TGI [18] of 13.1 µM. The GI50 [19] was 541 nM, the TGI [19] was 7.29 µM and the GI50 [20] was 468 nM. It also gave a TGI [20] greater than 44 µM, a GI50 [21] of 563 nM and a TGI [21] of 11.5 µM. The GI50 [22] was 811 nM, the TGI [22] was 4.54 µM and the GI50 [23] was 523 nM. The TGI [23] was 10.8 µM, the GI50 [24] was 1080 nM and the TGI [24] was 4.22 µM. For the same compound, the GI50 [25] was 736 nM, the TGI [25] was 11.2 µM and the GI50 [26] was 2670 nM. For the same compound, the TGI [26] was 11.6 µM, the GI50 [27] was 315 nM and the TGI [27] was 3.74 µM. It also gave a GI50 [28] of 1130 nM, a TGI [28] greater than 20.9 µM and a GI50 [29] of 1730 nM.
